Where two headings read alike, the source gives them in different places.
How the values were obtained:
Format in all cases: cell-based
[1] = molecular target: protein kinases (human kinome) (Homo sapiens, UniProt P11802)
[2] = molecular target: T1, protein kinases (human kinome) (Homo sapiens, UniProt O14965)
T1 sequence (O14965 1-403): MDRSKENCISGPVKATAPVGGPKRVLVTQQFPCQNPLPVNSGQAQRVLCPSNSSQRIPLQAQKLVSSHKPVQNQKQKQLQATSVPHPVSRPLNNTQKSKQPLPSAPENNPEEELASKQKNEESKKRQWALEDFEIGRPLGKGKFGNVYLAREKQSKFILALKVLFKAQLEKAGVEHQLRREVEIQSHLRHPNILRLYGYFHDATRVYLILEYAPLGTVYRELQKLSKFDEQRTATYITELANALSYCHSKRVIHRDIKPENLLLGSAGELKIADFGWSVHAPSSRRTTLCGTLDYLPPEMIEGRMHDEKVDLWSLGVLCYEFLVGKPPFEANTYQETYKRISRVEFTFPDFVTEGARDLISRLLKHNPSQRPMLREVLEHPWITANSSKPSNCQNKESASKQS

[3] = molecular target: protein kinases (human kinome) (Homo sapiens, UniProt P51451); settings: for logFC BLK: BLK (P51451), direction down; for logFC of BLK (P51451): down
protein kinases (human kinome) (Homo sapiens, UniProt P51451), sequence (P51451 whole entry): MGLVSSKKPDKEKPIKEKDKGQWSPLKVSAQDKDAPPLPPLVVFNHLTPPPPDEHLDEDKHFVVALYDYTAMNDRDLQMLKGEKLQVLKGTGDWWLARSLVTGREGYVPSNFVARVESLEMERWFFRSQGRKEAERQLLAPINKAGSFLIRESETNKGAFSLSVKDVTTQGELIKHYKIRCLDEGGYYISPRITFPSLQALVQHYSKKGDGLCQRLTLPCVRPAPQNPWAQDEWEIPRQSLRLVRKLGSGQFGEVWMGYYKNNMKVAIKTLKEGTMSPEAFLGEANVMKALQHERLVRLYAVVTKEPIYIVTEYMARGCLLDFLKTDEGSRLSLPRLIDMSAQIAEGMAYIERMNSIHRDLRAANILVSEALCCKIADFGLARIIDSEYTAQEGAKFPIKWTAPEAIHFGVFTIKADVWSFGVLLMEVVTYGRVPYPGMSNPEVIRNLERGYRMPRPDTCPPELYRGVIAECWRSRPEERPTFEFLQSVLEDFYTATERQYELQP

[4] = molecular target: protein kinases (human kinome) (Homo sapiens, UniProt Q00534); settings: for logFC CDK6: CDK6 (Q00534), direction down; for logFC of CDK6 (Q00534): down
protein kinases (human kinome) (Homo sapiens, UniProt Q00534), sequence (Q00534 whole entry): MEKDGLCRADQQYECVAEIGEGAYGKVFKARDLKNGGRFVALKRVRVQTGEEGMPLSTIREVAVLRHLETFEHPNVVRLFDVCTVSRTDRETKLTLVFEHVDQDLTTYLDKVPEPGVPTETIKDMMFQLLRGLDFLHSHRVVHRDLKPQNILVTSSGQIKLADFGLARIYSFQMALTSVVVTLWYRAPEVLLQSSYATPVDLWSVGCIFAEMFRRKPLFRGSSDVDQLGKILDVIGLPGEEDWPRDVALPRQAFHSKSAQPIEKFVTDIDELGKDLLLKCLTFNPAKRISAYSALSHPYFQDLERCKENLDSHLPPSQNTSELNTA

[5] = molecular target: protein kinases (human kinome) (Homo sapiens, UniProt P16591); settings: for logFC of FER (P16591-1): down; for logFC of FER: FER P16591-1
protein kinases (human kinome) (Homo sapiens, UniProt P16591), sequence (P16591 whole entry): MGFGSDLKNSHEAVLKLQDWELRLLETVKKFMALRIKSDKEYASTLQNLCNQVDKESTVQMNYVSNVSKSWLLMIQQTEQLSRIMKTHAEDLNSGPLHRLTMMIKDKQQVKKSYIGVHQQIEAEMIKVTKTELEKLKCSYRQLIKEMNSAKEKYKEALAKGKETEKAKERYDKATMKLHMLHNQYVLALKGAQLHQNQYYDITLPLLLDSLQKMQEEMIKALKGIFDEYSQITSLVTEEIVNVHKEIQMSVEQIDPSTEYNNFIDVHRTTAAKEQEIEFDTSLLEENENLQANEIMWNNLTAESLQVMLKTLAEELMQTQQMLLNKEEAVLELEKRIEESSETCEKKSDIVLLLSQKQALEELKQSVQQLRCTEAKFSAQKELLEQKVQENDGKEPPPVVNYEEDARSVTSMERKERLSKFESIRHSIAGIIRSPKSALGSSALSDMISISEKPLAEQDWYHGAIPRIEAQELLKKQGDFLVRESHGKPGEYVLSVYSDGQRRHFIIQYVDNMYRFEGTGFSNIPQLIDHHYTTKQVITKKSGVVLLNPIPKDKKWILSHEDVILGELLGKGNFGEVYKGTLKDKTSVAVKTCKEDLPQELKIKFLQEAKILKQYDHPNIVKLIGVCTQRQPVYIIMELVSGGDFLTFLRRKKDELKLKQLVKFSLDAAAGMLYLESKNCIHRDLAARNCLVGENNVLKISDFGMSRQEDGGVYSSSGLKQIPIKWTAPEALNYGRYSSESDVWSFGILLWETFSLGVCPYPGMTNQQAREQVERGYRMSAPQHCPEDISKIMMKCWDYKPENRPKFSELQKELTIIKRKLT

[6] = molecular target: protein kinases (human kinome) (Homo sapiens, UniProt Q2M2I8)
protein kinases (human kinome) (Homo sapiens, UniProt Q2M2I8), sequence (Q2M2I8 whole entry): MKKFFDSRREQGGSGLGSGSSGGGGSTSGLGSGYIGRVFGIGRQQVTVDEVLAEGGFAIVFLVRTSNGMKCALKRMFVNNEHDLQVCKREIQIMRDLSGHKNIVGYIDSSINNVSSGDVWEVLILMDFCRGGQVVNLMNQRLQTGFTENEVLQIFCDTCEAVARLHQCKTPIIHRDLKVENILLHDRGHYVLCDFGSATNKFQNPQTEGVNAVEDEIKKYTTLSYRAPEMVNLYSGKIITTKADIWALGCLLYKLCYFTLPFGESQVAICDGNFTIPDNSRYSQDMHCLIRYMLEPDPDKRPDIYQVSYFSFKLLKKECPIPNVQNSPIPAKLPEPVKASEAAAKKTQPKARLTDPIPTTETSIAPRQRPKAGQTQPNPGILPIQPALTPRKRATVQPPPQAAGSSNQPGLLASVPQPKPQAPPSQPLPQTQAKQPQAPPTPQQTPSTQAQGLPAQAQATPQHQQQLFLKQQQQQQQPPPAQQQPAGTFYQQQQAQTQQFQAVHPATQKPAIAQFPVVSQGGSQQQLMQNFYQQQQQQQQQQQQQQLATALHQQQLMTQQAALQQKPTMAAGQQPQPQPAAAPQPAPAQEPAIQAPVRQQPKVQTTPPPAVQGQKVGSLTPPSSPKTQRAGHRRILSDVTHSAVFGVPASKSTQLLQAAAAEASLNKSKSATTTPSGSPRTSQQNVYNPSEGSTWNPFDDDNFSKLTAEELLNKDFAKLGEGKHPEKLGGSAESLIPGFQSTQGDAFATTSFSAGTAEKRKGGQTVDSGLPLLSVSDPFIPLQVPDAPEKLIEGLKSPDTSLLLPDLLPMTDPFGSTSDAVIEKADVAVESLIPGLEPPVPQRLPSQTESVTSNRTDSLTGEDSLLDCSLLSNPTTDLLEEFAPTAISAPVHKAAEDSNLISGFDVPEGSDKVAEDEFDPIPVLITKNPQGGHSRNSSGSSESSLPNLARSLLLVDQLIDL

[7] = molecular target: T2, protein kinases (human kinome) (Homo sapiens, UniProt O14976); settings: for logFC of GAK (O14976): down; for logFC GAK: GAK (O14976), direction down
T2 sequence (O14976 1-1311): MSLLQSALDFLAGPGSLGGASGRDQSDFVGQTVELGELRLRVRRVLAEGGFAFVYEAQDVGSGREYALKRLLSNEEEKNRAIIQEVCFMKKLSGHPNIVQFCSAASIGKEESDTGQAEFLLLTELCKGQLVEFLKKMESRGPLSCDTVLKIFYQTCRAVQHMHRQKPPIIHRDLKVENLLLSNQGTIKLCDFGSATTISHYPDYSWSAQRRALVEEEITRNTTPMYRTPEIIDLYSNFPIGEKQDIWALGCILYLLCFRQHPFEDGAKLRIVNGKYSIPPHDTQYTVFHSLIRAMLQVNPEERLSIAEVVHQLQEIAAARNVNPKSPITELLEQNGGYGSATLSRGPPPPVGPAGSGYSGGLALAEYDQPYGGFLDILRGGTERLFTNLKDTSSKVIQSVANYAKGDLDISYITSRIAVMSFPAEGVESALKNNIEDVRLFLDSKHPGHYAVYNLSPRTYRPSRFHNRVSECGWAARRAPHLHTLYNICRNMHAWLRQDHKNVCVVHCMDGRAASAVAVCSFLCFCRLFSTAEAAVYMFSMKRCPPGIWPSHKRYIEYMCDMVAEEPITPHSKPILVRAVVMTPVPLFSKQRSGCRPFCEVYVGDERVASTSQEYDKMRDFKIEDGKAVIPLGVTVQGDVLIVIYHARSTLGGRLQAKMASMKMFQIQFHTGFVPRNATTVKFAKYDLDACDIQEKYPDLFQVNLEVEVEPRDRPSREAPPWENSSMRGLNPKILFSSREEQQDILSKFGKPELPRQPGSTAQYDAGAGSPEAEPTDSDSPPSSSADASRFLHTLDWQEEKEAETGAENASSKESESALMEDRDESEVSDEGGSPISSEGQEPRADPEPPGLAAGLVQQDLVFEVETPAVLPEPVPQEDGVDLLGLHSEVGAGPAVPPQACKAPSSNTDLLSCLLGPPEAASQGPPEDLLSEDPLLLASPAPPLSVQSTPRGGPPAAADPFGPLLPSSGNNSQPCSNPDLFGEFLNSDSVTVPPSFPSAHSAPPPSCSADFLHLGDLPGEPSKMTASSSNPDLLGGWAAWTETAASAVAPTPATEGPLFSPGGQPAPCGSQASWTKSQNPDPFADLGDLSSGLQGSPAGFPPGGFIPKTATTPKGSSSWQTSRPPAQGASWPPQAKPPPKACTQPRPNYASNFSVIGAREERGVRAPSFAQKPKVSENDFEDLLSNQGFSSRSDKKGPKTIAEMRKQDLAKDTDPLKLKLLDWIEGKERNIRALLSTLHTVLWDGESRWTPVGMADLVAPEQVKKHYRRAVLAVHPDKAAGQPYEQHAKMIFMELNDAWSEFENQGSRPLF

[8] = AAK1 (Q2M218-1), experiment wp131, down
[9] = AAK1 (Q2M218-1), experiment wp137, down
[10] = AAK1, accession Q2M218-1, experiment wp131, direction of change down
[11] = AAK1, accession Q2M218-1, experiment wp137, direction of change down

protein kinases (human kinome) (Homo sapiens, UniProt P11802), sequence (P11802 whole entry): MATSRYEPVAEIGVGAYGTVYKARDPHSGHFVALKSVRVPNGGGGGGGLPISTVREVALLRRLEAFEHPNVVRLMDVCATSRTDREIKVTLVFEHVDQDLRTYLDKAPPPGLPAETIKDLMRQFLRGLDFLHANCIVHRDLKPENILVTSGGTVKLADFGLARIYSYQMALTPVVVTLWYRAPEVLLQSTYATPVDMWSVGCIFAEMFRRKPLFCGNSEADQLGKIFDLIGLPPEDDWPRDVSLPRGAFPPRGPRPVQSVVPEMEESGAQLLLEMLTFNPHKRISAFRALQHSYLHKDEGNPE

With `CC(C)S(=O)(=O)c1ccccc1Nc1nc(Nc2ccc(N3CCN(CCOCCOCCNC(=O)CNc4cccc5c4C(=O)N(C4CCC(=O)NC4=O)C5=O)CC3)cc2)ncc1Cl` (centres unmarked) [TL12.186] the “logFC CDK4 (P11802)” value ([1]; experiment wp016) was −0.9166, the “logFC CDK4 (P11802)” value ([1]; experiment wp131) was −1.186 and the “logFC CDK4 (P11802)” value ([1]; experiment wp137) was −1.173. The “logFC AURKA (O14965)” value ([2]; experiment wp016) was −1.758, the “logFC AURKA (O14965)” value ([2]; experiment wp131) was −3.193 and the “logFC AURKA (O14965)” value ([2]; experiment wp137) was −2.642. The “logFC BLK” value ([3]; experiment wp131) was −2.497, the “logFC BLK” value ([3]; experiment wp137) was −2.115 and the “logFC of BLK” value ([3]; BLK P51451, experiment wp016) was −1.475. The “logFC of BLK (P51451)” value ([3]; Experiment wp016) was −1.475, the “logFC of BLK (P51451)” value ([3]; Experiment wp131) was −2.497 and the “logFC of BLK (P51451)” value ([3]; Experiment wp137) was −2.115. The “logFC CDK6” value ([4]; experiment wp016) was −0.5831, the “logFC CDK6” value ([4]; experiment wp131) was −0.9892 and the “logFC CDK6” value ([4]; experiment wp137) was −0.8724. For the same molecule, the “logFC of CDK6 (Q00534)” value ([4]; Experiment wp016) was −0.5831, the “logFC of CDK6 (Q00534)” value ([4]; Experiment wp131) was −0.9892 and the “logFC of CDK6 (Q00534)” value ([4]; Experiment wp137) was −0.8724. The “logFC of FER (P16591-1)” value ([5]; Experiment wp016) was −2.727, the “logFC of FER (P16591-1)” value ([5]; Experiment wp131) was −2.583 and the “logFC of FER (P16591-1)” value ([5]; Experiment wp137) was −2.329. For the same molecule, the “logFC of FER” value ([5]; experiment wp016) was −2.727, the “logFC of FER” value ([5]; experiment wp131) was −2.583 and the “logFC of FER” value ([5]; experiment wp137) was −2.329. For the same molecule, the “logFC AAK1” value ([6]; AAK1 (Q2M218-1), experiment wp016, down) was −1.338, the “logFC AAK1” value [6, 8] was −1.52 and the “logFC AAK1” value [6, 9] was −1.31. For the same molecule, the “logFC AAK1” value ([6]; AAK1, accession Q2M218-1, experiment wp016, direction of change down) was −1.338, the “logFC AAK1” value [6, 10] was −1.52 and the “logFC AAK1” value [6, 11] was −1.31. For the same molecule, the “logFC of GAK (O14976)” value ([7]; Experiment wp016) was −0.3354 and the “logFC GAK” value ([7]; experiment wp016) was −0.3354.

In the case of `CS(=O)(=O)Nc1cccc(-c2csc3cnc(Nc4ccc(N5CCN(CCCCCOc6cccc7c6C(=O)N(C6CCC(=O)NC6=O)C7=O)CC5)cc4)nc23)c1` (centres unmarked) [DB0614, N-(3-(2-((4-(4-(5-((2-(2,6-Dioxopiperidin-3-yl)-1,3-dioxoisoindolin-4-yl)oxy)pentyl)piperazin-1-yl)phenyl)amino)thieno[3,2-d]pyrimidin-7-yl)phenyl)methanesulfonamide], the “logFC CDK4 (P11802)” value ([1]; experiment wp045) is reported as −1.539, the “logFC CDK4 (P11802)” value ([1]; experiment wp117) is reported as −1.539 and the “logFC AURKA (O14965)” value ([2]; experiment wp045) is reported as −0.385. For the same molecule, the “logFC AURKA (O14965)” value ([2]; experiment wp117) was −0.4547, the “logFC CDK6” value ([4]; experiment wp045) was −2.265 and the “logFC CDK6” value ([4]; experiment wp117) was −2.079. The “logFC of CDK6 (Q00534)” value ([4]; Experiment wp045) was −2.265, the “logFC of CDK6 (Q00534)” value ([4]; Experiment wp117) was −2.079 and the “logFC of FER (P16591-1)” value ([5]; Experiment wp045) was −0.7641. For the same molecule, the “logFC of FER (P16591-1)” value ([5]; Experiment wp117) was −0.7725, the “logFC of FER” value ([5]; experiment wp045) was −0.7641 and the “logFC of FER” value ([5]; experiment wp117) was −0.7725. For the same molecule, the “logFC AAK1” value ([6]; AAK1 (Q2M218-1), experiment wp045, down) was −1.863, the “logFC AAK1” value ([6]; AAK1 (Q2M218-1), experiment wp117, down) was −1.652 and the “logFC AAK1” value ([6]; AAK1, accession Q2M218-1, experiment wp045, direction of change down) was −1.863. The “logFC AAK1” value ([6]; AAK1, accession Q2M218-1, experiment wp117, direction of change down) was −1.662, the “logFC of GAK (O14976)” value ([7]; Experiment wp045) was −0.3305 and the “logFC of GAK (O14976)” value ([7]; Experiment wp117) was −0.4196. The “logFC GAK” value ([7]; experiment wp045) was −0.3305 and the “logFC GAK” value ([7]; experiment wp117) was −0.4196.

With `Cc1ncsc1-c1ccc([C@H](C)NC(=O)[C@@H]2C[C@@H](O)CN2C(=O)[C@@H](NC(=O)CCOCCOCCN2CCN(c3ccc(Nc4ncc(Cl)c(Nc5ccccc5S(=O)(=O)C(C)C)n4)cc3)CC2)C(C)(C)C)cc1` [FMF.06.098.1] the “logFC CDK4 (P11802)” value ([1]; Experiment wp108) was −0.8731, the “logFC CDK4 (P11802)” value ([1]; experiment wp114) was −0.3781 and the “logFC CDK4 (P11802)” value ([1]; experiment wp131) was −1.029. The “logFC AURKA (O14965)” value ([2]; experiment wp114) was −0.4151, the “logFC AURKA (O14965)” value ([2]; experiment wp131) was −0.3471 and the “logFC CDK6” value ([4]; experiment wp108) was −0.3588. For the same molecule, the “logFC CDK6” value ([4]; experiment wp131) was −0.5377, the “logFC of CDK6 (Q00534)” value ([4]; Experiment wp108) was −0.3588 and the “logFC of CDK6 (Q00534)” value ([4]; Experiment wp131) was −0.5377. For the same molecule, the “logFC of FER (P16591-1)” value ([5]; Experiment wp108) was −0.3577, the “logFC of FER (P16591-1)” value ([5]; Experiment wp131) was −0.4871 and the “logFC of FER” value ([5]; experiment wp108) was −0.3577. For the same molecule, the “logFC of FER” value ([5]; experiment wp131) was −0.4871, the “logFC AAK1” value ([6]; AAK1 (Q2M218-1), experiment wp108, down) was −0.4346 and the “logFC AAK1” value ([6]; AAK1 (Q2M218-1), experiment wp114, down) was −0.485. For the same molecule, the “logFC AAK1” value [6, 8] was −0.7293, the “logFC AAK1” value ([6]; AAK1, accession Q2M218-1, experiment wp108, direction of change down) was −0.4346 and the “logFC AAK1” value ([6]; AAK1, accession Q2M218-1, experiment wp114, direction of change down) was −0.485. For the same molecule, the “logFC AAK1” value [6, 10] was −0.7293, the “logFC of GAK (O14976)” value ([7]; Experiment wp108) was −0.4156 and the “logFC of GAK (O14976)” value ([7]; Experiment wp131) was −0.3469. The “logFC GAK” value ([7]; experiment wp108) was −0.4156 and the “logFC GAK” value ([7]; experiment wp131) was −0.3469.

`CC(C)S(=O)(=O)c1ccccc1Nc1nc(Nc2ccc(N3CCN(CCOCCOCCC(=O)NCCNc4cccc5c4CN(C4CCC(=O)NC4=O)C5=O)CC3)cc2)ncc1Cl` (centres unmarked) [TL13.97] was tested, and the “logFC CDK4 (P11802)” value ([1]; experiment wp137) was −0.9676, the “logFC AURKA (O14965)” value ([2]; experiment wp014) was −0.3268 and the “logFC AURKA (O14965)” value ([2]; experiment wp137) was −1.612. The “logFC BLK” value ([3]; experiment wp137) was −2.219, the “logFC of BLK (P51451)” value ([3]; Experiment wp137) was −2.219 and the “logFC CDK6” value ([4]; experiment wp137) was −0.5967. The “logFC of CDK6 (Q00534)” value ([4]; Experiment wp137) was −0.5967, the “logFC of FER (P16591-1)” value ([5]; Experiment wp137) was −2.412 and the “logFC of FER” value ([5]; experiment wp137) was −2.412. The “logFC AAK1” value [6, 9] was −2.479 and the “logFC AAK1” value [6, 11] was −2.479.

From patent US20240269139A1, “COMPOUNDS FOR TARGETED PROTEIN DEGRADATION OF KINASES” (DANA-FARBER CANCER INSTITUTE, INC., priority 2020, published 2024)
